Each compound was assayed against ACL (Homo sapiens (Human), UniProt P53396) (assay: ADP-Glo Assay).
ACL, sequence (P53396 other isoform, or with tags, fused parts or gaps isoform P53396-2): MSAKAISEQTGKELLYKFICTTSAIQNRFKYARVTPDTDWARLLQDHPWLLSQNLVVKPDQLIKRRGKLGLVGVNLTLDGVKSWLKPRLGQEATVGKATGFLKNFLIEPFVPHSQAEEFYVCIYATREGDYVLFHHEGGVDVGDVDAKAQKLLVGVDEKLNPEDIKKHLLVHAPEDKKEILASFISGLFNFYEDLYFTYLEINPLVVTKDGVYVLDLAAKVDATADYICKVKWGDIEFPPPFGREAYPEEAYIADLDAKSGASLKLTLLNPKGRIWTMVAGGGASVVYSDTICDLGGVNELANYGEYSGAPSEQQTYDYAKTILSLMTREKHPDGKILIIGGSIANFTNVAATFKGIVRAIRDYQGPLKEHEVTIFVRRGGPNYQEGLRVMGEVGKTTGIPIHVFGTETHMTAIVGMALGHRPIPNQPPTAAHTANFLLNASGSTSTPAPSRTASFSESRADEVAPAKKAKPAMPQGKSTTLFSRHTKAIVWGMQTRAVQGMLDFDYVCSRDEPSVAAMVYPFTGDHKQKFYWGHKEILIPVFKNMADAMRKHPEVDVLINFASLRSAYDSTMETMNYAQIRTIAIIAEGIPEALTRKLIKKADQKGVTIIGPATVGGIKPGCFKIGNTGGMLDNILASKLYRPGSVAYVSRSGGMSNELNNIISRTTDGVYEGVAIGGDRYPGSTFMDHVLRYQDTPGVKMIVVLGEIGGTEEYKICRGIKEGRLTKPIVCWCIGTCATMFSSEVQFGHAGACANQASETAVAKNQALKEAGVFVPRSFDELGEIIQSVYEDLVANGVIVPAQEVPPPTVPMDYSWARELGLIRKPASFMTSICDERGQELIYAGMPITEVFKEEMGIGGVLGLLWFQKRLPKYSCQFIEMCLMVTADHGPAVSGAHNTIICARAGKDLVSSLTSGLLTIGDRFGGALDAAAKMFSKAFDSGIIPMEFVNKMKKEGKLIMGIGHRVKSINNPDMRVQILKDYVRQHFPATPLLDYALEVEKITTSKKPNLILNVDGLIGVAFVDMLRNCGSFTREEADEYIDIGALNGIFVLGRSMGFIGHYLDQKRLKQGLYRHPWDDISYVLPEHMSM
Method: Compounds of the present invention were evaluated in an ADP-GLO assay as follows:
b) Add 0.1 μL diluted cpd solution to assay plate, each dose with 2 replicates c) Centrifuge 1000 RPM for 1 min d) Add 5 μL ACL working solution to 384-well assay plate, centrifuge 1000 RPM for 1 min e) Incubate at 25° C. for 15 min f) Add 5 μL substrate working solution to initiate reaction
h) Reference final conc: 30 uM starting Conc, 3× dilution, 11+0 points. Test cpd conc: 30/100 uM starting Conc, 3× dilution, 11+0 points. i) Incubate at 25° C. for 60 min j) Add 10 μL ADP Glo reagent, centrifuge 1000 RPM for 1 min k) Incubate at 25° C. for 40 min l) Add 20 μL kinase detection reagent, centrifuge 1000 RPM for 1 min m) Incubate at 25° C. for 40 min n) Read on Envision for US LUM as RLU
Work on `CS(=O)(=O)c1cc(Cl)cc(S(=O)(=O)Nc2cc(-c3ccccc3)c(F)cc2F)c1` [I-392, 3-chloro-N-(4,6-difluoro-[1,1′-biphenyl]-3-yl)-5-(methylsulfonyl)benzenesulfonamide] yielded an IC50 greater than 20 µM. Work on `O=S(=O)(Nc1ccc(-c2ccccc2)cc1F)c1cccc2ncoc12` [I-393, N-(3-fluoro-[1,1′-biphenyl]-4-yl)benzo[d] oxazole-7-sulfonamide] yielded an IC50 greater than 20 µM. With `COc1ccc(-c2ccccc2)cc1NS(=O)(=O)c1cc(Cl)cc(Cl)c1F` [I-394, 3,5-dichloro-2-fluoro-N-[4-methoxy-[1,1-biphenyl]-3-yl]benzene-1-sulfonamide] the IC50 was greater than 20 µM. Compound `O=S(=O)(Nc1cc(N2CCNCC2)c(F)cc1F)c1cc(Cl)cc(Cl)c1O` [I-395, 3,5-dichloro-N-(2,4-difluoro-5-(piperazin-1-yl)phenyl)-2-hydroxybenzenesulfonamide] has an IC50 greater than 20 µM. `COc1ccc(-c2ccccc2)cc1NS(=O)(=O)c1cccc(C#N)c1` [I-396, 3-cyano-N-(2-methoxy-5-phenylphenyl) benzene-1-sulfonamide] was tested, and the IC50 was greater than 20 µM. `COc1ccc(-c2ccccc2)cc1N(Cc1ccccc1)S(=O)(=O)c1c(C)c(Cl)cc(Cl)c1OCc1ccccc1` [I-397, N-benzyl-2-(benzyloxy)-3,5-dichloro-N-(4-methoxy-[1,1′-biphenyl]-3-yl)-6-methylbenzenesulfonamide] was tested, and the IC50 was greater than 20 µM. With `COc1ccc(-c2ccccc2)cc1NS(=O)(=O)c1cc(Cl)cc(Cl)c1C(=O)O` [I-398, 2,4-dichloro-6-(N-(4-methoxy-[1,1′-biphenyl]-3-yl)sulfamoyl) Benzoic Acid] the IC50 was greater than 20 µM. Work on `O=C(O)CCc1cc(Cl)c(O)c(S(=O)(=O)Nc2cc(F)cc(F)c2)c1` [I-399, 3-(3-chloro-5-(N-(3,5-difluorophenyl)sulfamoyl)-4-hydroxyphenyl) Propanoic Acid] yielded an IC50 greater than 20 µM. `COc1ccc(-c2ccccc2)cc1NS(=O)(=O)c1c(C)nn(C)c1Cl` [I-400, 5-chloro-N-(4-methoxy-[1,1′-biphenyl]-3-yl)-1,3-dimethyl-1H-pyrazole-4-sulfonamide] gave an IC50 greater than 20 µM. `COc1ccc(-c2ccccc2)cc1N(C)S(=O)(=O)c1cc(Cl)cc(Cl)c1OC` [I-401, 3,5-dichloro-2-methoxy-N-(4-methoxy-[1,1′-biphenyl]-3-yl)-N-methylbenzenesulfonamide] was tested, and the IC50 was greater than 20 µM. In the case of `COc1ccc(-c2ccccc2)cc1NS(=O)(=O)c1cc(Cl)cc(Cl)c1OC` [I-402, 3,5-dichloro-2-methoxy-N-(4-methoxy-[1,1′-biphenyl]-3-yl)benzenesulfonamide], the IC50 is reported as greater than 20 µM. For `COc1cc(-c2ccccc2)ccc1NS(=O)(=O)c1cc(Cl)cc(Cl)c1C` [I-403, 3,5-dichloro-N-(3-methoxy-[1,1′-biphenyl]-4-yl)-2-methylbenzenesulfonamide], the IC50 was greater than 20 µM. In the case of `COc1ccc(C(=O)O)cc1NS(=O)(=O)c1cc(Cl)cc(Cl)c1O` [I-404, 3-((3,5-dichloro-2-hydroxyphenyl)sulfonamido)-4-methoxybenzoic acid], the IC50 is reported as greater than 20 µM. `COc1ccc(-c2ccccc2)cc1NS(=O)(=O)c1cc(Cl)cc(Cl)c1` [I-405, 3,5-dichloro-N-(4-methoxy-[1,1′-biphenyl]-3-yl)benzenesulfonamide] showed an IC50 greater than 20 µM. `COc1ccc(-c2ccccc2)cc1NS(=O)(=O)c1cccc(C(=O)O)c1` [I-406, 3-(N-(4-methoxy-[1,1′-biphenyl]-3-yl)sulfamoyl)benzoic acid] gave an IC50 greater than 20 µM. For `COc1ccc(-c2ccccc2)cc1NS(=O)(=O)c1cc(C(=O)O)cs1` [I-408, 5-(N-(4-methoxy-[1,1′-biphenyl]-3-yl)sulfamoyl) thiophene-3-carboxylic acid], the IC50 was greater than 20 µM. `COc1ccc(-c2ccccc2)cc1NS(=O)(=O)c1ccc(C#N)cc1` [I-410, 4-cyano-N-(2-methoxy-5-phenylphenyl)benzene-1-sulfonamide] showed an IC50 greater than 20 µM. Work on `COc1ccc(C(=O)OC2CC2)cc1NS(=O)(=O)c1cc(Cl)cc(Cl)c1O` [I-411, cyclopropyl 3-((3,5-dichloro-2-hydroxyphenyl)sulfonamido)-4-methoxybenzoate] yielded an IC50 greater than 20 µM. For `O=C(O)c1ccc(NS(=O)(=O)c2cc(Cl)cc(Cl)c2O)cc1Cl` [I-412, 2-chloro-4-[(3,5-dichloro-2-hydroxybenzene)sulfonamido]benzoic acid], the IC50 was greater than 20 µM. `COc1c(Cl)cc(Cl)cc1S(=O)(=O)Nc1cc(C(=O)O)ccc1F` [I-413, 3-[(3,5-dichloro-2-methoxybenzene)sulfonamido]-4-fluorobenzoic Acid] was tested, and the IC50 was greater than 20 µM. `COc1ccc(-c2ccccc2)cc1NS(=O)(=O)c1cc(Cl)cc(Cl)c1N` [I-414, 2-amino-3,5-dichloro-N-(2-methoxy-5-phenylphenyl) benzene-1-sulfonamide] was tested, and the IC50 was greater than 20 µM. Work on `Cn1cc(Cl)cc(S(=O)(=O)Nc2cc(-c3ccccc3)ccc2F)c1=O` [I-415, 5-chloro-N-(2-fluoro-5-phenylphenyl)-1-methyl-2-oxo-1,2-dihydropyridine-3-sulfonamide] yielded an IC50 greater than 20 µM. In the case of `COc1ccc(-c2ccccc2)cc1NS(=O)(=O)c1ccc(O)c(Cl)c1` [I-416, 3-chloro-4-hydroxy-N-(2-methoxy-5-phenylphenyl)benzene-1-sulfonamide], the IC50 is reported as greater than 20 µM. Work on `COc1ccc(-c2ccccc2)cc1N(Cc1ccccc1)S(=O)(=O)c1cn[nH]c1` [I-417, N-benzyl-N-(2-methoxy-5-phenylphenyl)-1H-pyrazole-4-sulfonamide] yielded an IC50 greater than 20 µM. Work on `N#Cc1ccc(F)c(S(=O)(=O)Nc2cc(-c3ccccc3)ccc2F)c1` [I-418, 5-cyano-2-fluoro-N-(2-fluoro-5-phenylphenyl) benzene-1-sulfonamide] yielded an IC50 greater than 20 µM. For `N#Cc1cccc(S(=O)(=O)Nc2cc(-c3ccccc3)ccc2F)c1` [I-419, 3-cyano-N-(2-fluoro-5-phenylphenyl)benzene-1-sulfonamide], the IC50 was greater than 20 µM. With `O=C(COc1c(Br)cc(Cl)cc1S(=O)(=O)N(Cc1ccccc1)c1cc(-c2ccccc2)ccc1F)OCc1ccccc1` [I-420, benzyl 2-(2-(N-benzyl-N-(4-fluoro-[1,1′-biphenyl]-3-yl)sulfamoyl)-6-bromo-4-chlorophenoxy)acetate] the IC50 was greater than 20 µM. `COC(=O)c1cccc(S(=O)(=O)Nc2cc(-c3ccccc3)ccc2OC)c1` [I-421, methyl 3-(N-(4-methoxy-[1,1′-biphenyl]-3-yl)sulfamoyl)benzoate] gave an IC50 greater than 20 µM. For `COc1ccc(-c2ccccc2)cc1NS(=O)(=O)c1cc(Cl)cc(C#N)c1` [I-422, 3-chloro-5-cyano-N-(2-methoxy-5-phenylphenyl)benzene-1-sulfonamide], the IC50 was greater than 20 µM. For `CS(=O)(=O)NC(=O)c1ccc(F)c(NS(=O)(=O)c2cc(Cl)cc(Cl)c2O)c1` [I-423, 3-[(3,5-dichloro-2-hydroxybenzene)sulfonamido]-4-fluoro-N-methanesulfonylbenzamide], the IC50 was greater than 20 µM. For `O=S(=O)(Nc1cc(-c2ccccc2)ccc1F)c1cc(-c2nn[nH]n2)ccc1F` [I-424, 2-fluoro-N-(2-fluoro-5-phenylphenyl)-5-(2H-1,2,3,4-tetrazol-5-yl)benzene-1-sulfonamide], the IC50 was greater than 20 µM. For `COc1ccc(-c2cccnc2)cc1NS(=O)(=O)c1cc(C(=O)O)cc(Cl)c1OC` [I-425, 3-chloro-4-methoxy-5-(N-(2-methoxy-5-(pyridin-3-yl)phenyl)sulfamoyl)benzoic Acid], the IC50 was greater than 20 µM. Compound `COc1ccc(-c2ccccc2)cc1N(C)S(=O)(=O)c1cc(C(=O)O)cc(Cl)c1O` [I-426, 3-chloro-4-hydroxy-5-[(2-methoxy-5-phenylphenyl)(methyl)sulfamoyl]benzoic acid] has an IC50 greater than 20 µM. For `COc1ccc(-c2cccnc2)cc1NS(=O)(=O)c1cc(C(=O)O)cc(Cl)c1O` [I-427, 3-chloro-4-hydroxy-5-(N-(2-methoxy-5-(pyridin-3-yl)phenyl)sulfamoyl)benzoic Acid], the IC50 was greater than 20 µM. `COC(=O)c1cc(Cl)c(OC)c(S(=O)(=O)Nc2cc(-c3ccccc3)ccc2OC)c1` [I-428, Methyl 3-chloro-4-methoxy-5-(N-(4-methoxy-[1,1′-biphenyl]-3-yl)sulfamoyl)benzoate] gave an IC50 greater than 20 µM. `NC(=O)c1ccc(F)c(S(=O)(=O)Nc2cc(-c3ccccc3)ccc2F)c1` [I-429, 4-fluoro-3-(N-(4-fluoro-[1,1′-biphenyl]-3-yl)sulfamoyl)benzamide] showed an IC50 greater than 20 µM. `COc1ccc(-c2ccccc2)cc1NS(=O)(=O)c1cc(Cl)cc(C(=O)O)c1OC` [I-430, 5-chloro-2-methoxy-3-(N-(4-methoxy-[1,1′-biphenyl]-3-yl)sulfamoyl)benzoic Acid] showed an IC50 greater than 20 µM. With `COC(=O)c1cc(Cl)cc(S(=O)(=O)Nc2cc(-c3ccccc3)ccc2OC)c1O` [I-431, Methyl 5-chloro-2-hydroxy-3-(N-(4-methoxy-[1,1′-biphenyl]-3-yl)sulfamoyl)benzoate] the IC50 was greater than 20 µM. Work on `COc1ccc(-c2ccccc2)cc1NS(=O)(=O)c1cc(C(N)=O)cc(Cl)c1OC` [I-432, 3-chloro-4-methoxy-5-(N-(4-methoxy-[1,1′-biphenyl]-3-yl)sulfamoyl)benzamide] yielded an IC50 greater than 20 µM. `CNC(=O)c1cc(Cl)c(OC)c(S(=O)(=O)Nc2cc(-c3ccccc3)ccc2OC)c1` [I-433, 3-chloro-4-methoxy-5-(N-(4-methoxy-[1,1′-biphenyl]-3-yl)sulfamoyl)-N-methylbenzamide] showed an IC50 greater than 20 µM. Compound `COc1ccc(-c2ccccc2)cc1NS(=O)(=O)c1cc(C(=O)N(C)C)cc(Cl)c1OC` [I-434, 3-chloro-4-methoxy-5-(N-(4-methoxy-[1,1′-biphenyl]-3-yl)sulfamoyl)-N,N-dimethylbenzamide] has an IC50 greater than 20 µM. For `COC(=O)c1cc(Cl)cc(S(=O)(=O)Nc2cc(-c3ccccc3)ccc2OC)c1OC` [I-435, Methyl 5-chloro-2-methoxy-3-(N-(4-methoxy-[1,1′-biphenyl]-3-yl)sulfamoyl)benzoate], the IC50 was greater than 20 µM. In the case of `COc1ccc(-c2ccccc2)cc1NS(=O)(=O)c1cccc(-c2nnn(C)n2)c1` [I-436, N-(2-methoxy-5-phenylphenyl)-3-(2-methyl-2H-1,2,3,4-tetrazol-5-yl)benzene-1-sulfonamide], the IC50 is reported as greater than 20 µM. In the case of `COc1ccc(-c2ccccc2)cc1NS(=O)(=O)c1cccc(-c2nnnn2C)c1` [I-437, N-(2-methoxy-5-phenylphenyl)-3-(1-methyl-1H-1,2,3,4-tetrazol-5-yl)benzene-1-sulfonamide], the IC50 is reported as greater than 20 µM. `COc1ccc(-c2ccccc2)cc1NS(=O)(=O)c1cc(C(=O)O)ccc1Cl` [I-438, 4-chloro-3-[(2-methoxy-5-phenylphenyl)sulfamoyl]benzoic acid] was tested, and the IC50 was greater than 20 µM.

Reference: patent US11555012B2 (Nimbus Artemis, Inc., priority 2018, dated 2023)
